US20240246964A1 (Arbutus Biopharma Corporation, priority 2021, published 2024)

Assays:
[1] = biological target: PD-L1 His protein / PD-1 Fc protein (Homo sapiens (Human), UniProt Q9NZQ7); experiment: HTRF Assay (PD-1/PD-L1 interaction); type: binding; details: PD-L1 His 6 nM, PD-1 Fc 6 nM
human PD-L1 = human PD-L1 (Homo sapiens (Human), UniProt Q9NZQ7); experiment: T cell activation luciferase reporter cell culture system (T Cell Activation Assay); type: cell-based; details: luciferase reporter assay; PD-L1 aAPC/CHO-K1 cells with PD-1 effector Jurkat T cells
human PD-L1, sequence (Q9NZQ7 19-290): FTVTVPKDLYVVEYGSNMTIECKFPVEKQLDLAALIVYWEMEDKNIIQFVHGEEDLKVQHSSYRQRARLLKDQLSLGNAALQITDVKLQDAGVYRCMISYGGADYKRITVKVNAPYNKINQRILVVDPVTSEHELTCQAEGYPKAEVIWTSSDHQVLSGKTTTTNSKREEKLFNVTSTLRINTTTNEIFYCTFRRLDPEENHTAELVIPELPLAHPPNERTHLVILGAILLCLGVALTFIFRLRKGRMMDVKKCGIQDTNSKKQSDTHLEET

PD-L1 His protein / PD-1 Fc protein, sequence (Q9NZQ7 19-238): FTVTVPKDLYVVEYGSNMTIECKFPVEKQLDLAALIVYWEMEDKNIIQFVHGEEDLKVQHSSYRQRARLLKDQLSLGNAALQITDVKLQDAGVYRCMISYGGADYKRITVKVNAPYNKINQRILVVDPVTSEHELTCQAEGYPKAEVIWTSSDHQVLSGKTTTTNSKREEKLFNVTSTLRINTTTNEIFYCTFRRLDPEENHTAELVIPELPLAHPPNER

Compound: COc1nc(-c2cccc(-c3ccnc(-c4ccc5c6c(n(C)c5c4)CCN(CCO)C6)c3Cl)c2Cl)ccc1CNC[C@@H]1CCC(=O)N1 [Compound 158, (S)-5-((((6-(2-chloro-3-(3-chloro-2-(2-(2-hydroxyethyl)-5-methyl-2,3,4,5-tetrahydro-1H-pyrido[4,3-b]indol-7-yl)pyridine-4-yl)phenyl)-2-methoxypyridin-3-yl)methyl)amino)methyl)pyridine1330ne-2-one]
- IC50 [1]: 0.64 nM
- EC50 (human PD-L1): ≥ 10000 nM

Compound: CNCc1ccc(-c2cccc(-c3ccnc(-c4ccc5c(c4)CNC5)c3Cl)c2Cl)nc1OC [Compound 159, 1-(6-(2-chloro-3-(3-chloro-2-(isoindolin-5-yl)pyridine-4-yl)phenyl)-2-methoxypyridin-3-yl)-N-methylmethanamine]
- IC50 [1]: 1.34 nM
- EC50 (human PD-L1): ≥ 10000 nM

Compound: COc1nc(-c2cccc(-c3ccnc(-c4ccc5c(c4)CNC5)c3Cl)c2Cl)ccc1CNCCO [Compound 160, 2-(((6-(2-chloro-3-(3-chloro-2-(isoindolin-5-yl)pyridine-4-yl)phenyl)-2-methoxypyridin-3-yl)methyl)amino)ethan-1-ol]
- IC50 [1]: 0.87 nM
- EC50 (human PD-L1): 150 nM

Compound: COc1nc(-c2cccc(-c3ccnc(-c4ccc5c(c4)CNC5)c3Cl)c2Cl)ccc1CNC[C@H](C)O [Compound 161, (S)-1-(((6-(2-chloro-3-(3-chloro-2-(isoindolin-5-yl)pyridine-4-yl)phenyl)-2-methoxypyridin-3-yl)methyl)amino)propan-2-ol]
- IC50 [1]: 0.73 nM
- EC50 (human PD-L1): 387 nM

Compound: COc1nc(-c2cccc(-c3ccnc(-c4ccc5c(c4)CNC5)c3Cl)c2Cl)ccc1CNC1CCN(C(C)=O)CC1 [Compound 162, 1-(4-(((6-(2-chloro-3-(3-chloro-2-(isoindolin-5-yl)pyridine-4-yl)phenyl)-2-methoxypyridin-3-yl)methyl)amino)piperidin-1-yl)ethan-1-one]
- IC50 [1]: 0.78 nM
- EC50 (human PD-L1): 5160 nM

Compound: COc1nc(-c2cccc(-c3ccnc(-c4ccc5c(c4)CNC5)c3Cl)c2Cl)ccc1CN(C)C1CCN(C(C)=O)CC1 [Compound 163, 1-(4-(((6-(2-chloro-3-(3-chloro-2-(isoindolin-5-yl)pyridine-4-yl)phenyl)-2-methoxypyridin-3-yl)methyl)(methyl)amino)piperidin-1-yl)ethan-1-one]
- IC50 [1]: 3.29 nM
- EC50 (human PD-L1): ≥ 10000 nM

Compound: COc1nc(-c2ccnc(-c3cccc4c3CC[C@@H]4Nc3nc(OC)c(CNC4(C(=O)O)CC4)cc3C(F)(F)F)c2Cl)ccc1CNC[C@@H]1CCC(=O)N1 [Compound 164, 1-(((6-(((S)-4-(3′-chloro-6-methoxy-5-(((((S)-5-oxopyrrolidin-2-yl)methyl)amino)methyl)-[2,4′-bipyridin]-2′-yl)-2,3-dihydro-1H-inden-1-yl)amino)-2-methoxy-5-(trifluoromethyl)pyridine-3-yl)methyl)amino)cyclopropane-1-carboxylic acid]
- IC50 [1]: 0.49 nM
- EC50 (human PD-L1): 66.6 nM

Compound: COc1nc(-c2ccnc(-c3cccc4c3CC[C@@H]4Oc3nc(OC)c(CNC[C@@H](C)O)cc3C(F)(F)F)c2Cl)ccc1CNC[C@@H]1CCC(=O)N1 [Compound 165, (S)-5-((((3′-chloro-2′-((S)-1-((5-((( ®-2-hydroxypropyl)amino)methyl)-6-methoxy-3-(trifluoromethyl)pyridine-2-yl)oxy)-2,3-dihydro-1H-inden-4-yl)-6-methoxy-[2,4′-bipyridin]-5-yl)methyl)amino)methyl)pyridine1332ne-2-one]
- IC50 [1]: 0.35 nM
- EC50 (human PD-L1): 4.15 nM

Compound: COc1nc(-c2ccnc(-c3cccc4c3CC[C@@H]4Oc3nc(OC)c(CNC[C@@H]4CCC(=O)N4)cc3C(F)(F)F)c2Cl)ccc1CNC[C@@H]1CCC(=O)N1 [Compound 166, (S)-5-((((3′-chloro-6-methoxy-2′-((S)-1-((6-methoxy-5-(((((S)-5-oxopyrrolidin-2-yl)methyl)amino)methyl)-3-(trifluoromethyl)pyridine-2-yl)oxy)-2,3-dihydro-1H-inden-4-yl)-[2,4′-bipyridin]-5-yl)methyl)amino)methyl)pyridine1332ne-2-one]
- IC50 [1]: 0.18 nM
- EC50 (human PD-L1): 1.98 nM

Compound: COc1nc(-c2cccc(-c3ccnc(-c4ccc5c(CNC6CCN(C(C)=O)CC6)nn(C)c5c4)c3Cl)c2Cl)ccc1CNC[C@@H]1CCC(=O)N1 [Compound 167, (S)-5-((((6-(3-(2-(3-(((1-acetylpiperidin-4-yl)amino)methyl)-1-methyl-1H-indazol-6-yl)-3-chloropyridin-4-yl)-2-chlorophenyl)-2-methoxypyridin-3-yl)methyl)amino)methyl)pyridine1332ne-2-one]
- IC50 [1]: 1.47 nM
- EC50 (human PD-L1): 18.4 nM

Compound: COc1nc(-c2cccc(-c3ccnc(-c4ccc5c(CN(C)C6CCN(C(C)=O)CC6)nn(C)c5c4)c3Cl)c2Cl)ccc1CNC[C@@H]1CCC(=O)N1 [Compound 168, (S)-5-((((6-(3-(2-(3-(((1-acetylpiperidin-4-yl)(methyl)amino)methyl)-1-methyl-1H-indazol-6-yl)-3-chloropyridin-4-yl)-2-chlorophenyl)-2-methoxypyridin-3-yl)methyl)amino)methyl)pyridine1332ne-2-one]
- IC50 [1]: 3.6 nM
- EC50 (human PD-L1): 12.5 nM

Compound: CNCc1ccc(-c2cccc(-c3ccnc(-c4cc(CNC[C@@H](O)CC(=O)O)cc(OC)c4)c3Cl)c2Cl)nc1OC [Compound 169, (S)-4-((3-(3-chloro-4-(2-chloro-3-(6-methoxy-5-((methylamino)methyl)pyridine-2-yl)phenyl)pyridine-2-yl)-5-methoxybenzyl)amino)-3-hydroxybutanoic acid]
- IC50 [1]: 1.85 nM
- EC50 (human PD-L1): 632 nM

Compound: CNCc1ccc(-c2cccc(-c3ccnc(-c4cc(CNCCC(=O)O)cc(OC)c4)c3Cl)c2Cl)nc1OC [Compound 170, 3-((3-(3-chloro-4-(2-chloro-3-(6-methoxy-5-((methylamino)methyl)pyridine-2-yl)phenyl)pyridine-2-yl)-5-methoxybenzyl)amino)propanoic acid]
- IC50 [1]: 0.73 nM
- EC50 (human PD-L1): 415 nM

Compound: CNCc1ccc(-c2cccc(-c3ccnc(-c4cc(CN5CC[C@H](C(=O)O)C5)cc(OC)c4)c3Cl)c2Cl)nc1OC [Compound 171, (S)-1-(3-(3-chloro-4-(2-chloro-3-(6-methoxy-5-((methylamino)methyl)pyridine-2-yl)phenyl)pyridine-2-yl)-5-methoxybenzyl)pyrrolidine-3-carboxylic acid]
- IC50 [1]: 1.65 nM
- EC50 (human PD-L1): 670 nM

Compound: CNCc1ccc(-c2cccc(-c3ccnc(-c4cc(CN5CC(CC(=O)O)C5)cc(OC)c4)c3Cl)c2Cl)nc1OC [Compound 172, 2-(1-(3-(3-chloro-4-(2-chloro-3-(6-methoxy-5-((methylamino)methyl)pyridine-2-yl)phenyl)pyridine-2-yl)-5-methoxybenzyl)pyridine1333-3-yl)acetic acid]
- IC50 [1]: 3.32 nM
- EC50 (human PD-L1): ≥ 10000 nM

Compound: CNCc1ccc(-c2cccc(-c3ccnc(-c4cc(CN5CC6(CC(C(=O)O)C6)C5)cc(OC)c4)c3Cl)c2Cl)nc1OC [Compound 173, 2-(3-(3-chloro-4-(2-chloro-3-(6-methoxy-5-((methylamino)methyl)pyridine-2-yl)phenyl)pyridine-2-yl)-5-methoxybenzyl)-2-azaspiro[3.3]heptane-6-carboxylic acid]
- IC50 [1]: 32.1 nM
- EC50 (human PD-L1): ≥ 10000 nM

Compound: CNCc1ccc(-c2cccc(-c3ccnc(-c4cc(CNC56CC(C(=O)O)(C5)C6)cc(OC)c4)c3Cl)c2Cl)nc1OC [Compound 174, 3-((3-(3-chloro-4-(2-chloro-3-(6-methoxy-5-((methylamino)methyl)pyridine-2-yl)phenyl)pyridine-2-yl)-5-methoxybenzyl)amino)bicyclo[1.1.1]pentane-1-carboxylic acid]
- IC50 [1]: 23.6 nM
- EC50 (human PD-L1): ≥ 10000 nM

Compound: CNCc1ccc(-c2cccc(-c3ccnc(-c4cc(CNCC56CC(C(=O)O)(C5)C6)cc(OC)c4)c3Cl)c2Cl)nc1OC [Compound 175, 3-(((3-(3-chloro-4-(2-chloro-3-(6-methoxy-5-((methylamino)methyl)pyridine-2-yl)phenyl)pyridine-2-yl)-5-methoxybenzyl)amino)methyl)bicyclo[1.1.1]pentane-1-carboxylic acid]
- IC50 [1]: 8.73 nM
- EC50 (human PD-L1): 1160 nM

Compound: COc1cc(-c2nccc(-c3cccc(-c4cc(F)c(CNC[C@@H]5CCC(=O)N5)c(OC)n4)c3Cl)c2Cl)cc2c1CN(C[C@H](C)O)CC2 [Compound 176, (S)-5-((((6-(2-chloro-3-(3-chloro-2-(2-((S)-2-hydroxypropyl)-8-methoxy-1,2,3,4-tetrahydroisoquinolin-6-yl)pyridine-4-yl)phenyl)-4-fluoro-2-methoxypyridin-3-yl)methyl)amino)methyl)pyridine1334ne-2-one]
- IC50 [1]: 1.05 nM
- EC50 (human PD-L1): 9.99 nM

Compound: COc1nc(-c2cccc(-c3ccnc(-c4ccc5c(c4)S(=O)(=O)CCNC5)c3Cl)c2Cl)ccc1CNC[C@@H]1CCC(=O)N1 [Compound 177, (S)-5-((((6-(2-chloro-3-(3-chloro-2-(1,1-dioxido-2,3,4,5-tetrahydrobenzo[f][1,4]pyridine1334n-8-yl)pyridine-4-yl)phenyl)-2-methoxypyridin-3-yl)methyl)amino)methyl)pyridine1334ne-2-one]
- IC50 [1]: 1.76 nM
- EC50 (human PD-L1): 176 nM

Compound: COc1nc(-c2cccc(-c3ccnc(-c4ccc5c(c4)CN(CCNC[C@@H]4CCC(=O)N4)C5=O)c3Cl)c2Cl)cc(F)c1CNC[C@@H]1CCC(=O)N1 [Compound 178, 5-(3-chloro-4-(2-chloro-3-(4-fluoro-6-methoxy-5-(((((S)-5-oxopyrrolidin-2-yl)methyl)amino)methyl)pyridine-2-yl)phenyl)pyridine-2-yl)-2-(2-((((S)-5-oxopyrrolidin-2-yl)methyl)amino)ethyl)isoindolin-1-one]
- IC50 [1]: 1.25 nM
- EC50 (human PD-L1): 144 nM

Compound: COc1cc(-c2nccc(-c3cccc(-c4ccc(CNC[C@@H]5CCC(=O)N5)c(OC)n4)c3Cl)c2Cl)ccc1C1=NCCN1 [Compound 179, (S)-5-((((6-(2-chloro-3-(3-chloro-2-(4-(4,5-dihydro-1H-imidazol-2-yl)-3-methoxyphenyl)pyridine-4-yl)phenyl)-2-methoxypyridin-3-yl)methyl)amino)methyl)pyridine1334ne-2-one]
- IC50 [1]: 2.45 nM
- EC50 (human PD-L1): 30.8 nM
